Results from patent US9987294B2, “Mitochondria-targeted anti-tumor agents” (University of Massachusetts, priority 2007, dated 2018).
“Also recorded” adds a separate entry of the source. Where a SMILES comes first, the peptide text is derived from it. [ ]: non-standard residue; d: D form.

How the values were obtained:
[1] = test system: mitochondria isolated from normal NIH3T3 cells; assay: Mitochondrial membrane potential of TMRM-loaded isolated mitochondria; type: biochemical
Description: (§1) Raji cells were treated with Shepherdin or control scrambled peptidomimetic (100 μM) or 17-AAG (5 μM), loaded with the mitochondrial membrane potential-sensitive fluorescent dye JC-1, and analyzed for changes in green/red fluorescence ratio by flow cytometry. For experiments in a cell-free system, purified mitochondria isolated from primary normal cells, various tumor cells types, or normal mouse organs were suspended in SB buffer. […] For these experiments, TMRM-loaded mitochondria in SB buffer were allowed to reach stable fluorescence, which was set as fully polarized state (maximum membrane potential). The fluorescence intensity after treatment with 2 mM CaCl2 was set as minimum membrane potential (fully depolarized state). Changes in fluorescence intensity after each treatment were plotted as a ratio between maximum and minimum membrane potential. In some experiments, increasing concentrations (10-100 μg) of TMRM-loaded mitochondria isolated from HeLa or MCF-7 cells were diluted in 3 ml of SB buffer, normalized to a total protein concentration of 500 μg with BSA, and analyzed for changes in membrane potential in response to control or the various Hsp90 antagonists.

HeLa cells [2] = assay: Cell viability by MTT, HeLa cells; conditions: 50 μM; cultures not treated with CsA
tumor cells = assay: Cell viability by MTT, tumor cell types; type: cell-based; conditions: 1 hour exposure; MTT
[3] = test system: normal mouse liver mitochondria; assay: Mitochondrial membrane potential of TMRM-loaded isolated mitochondria; type: biochemical
Description: as §1, with “potential.” for “potential. In some experiments, increasing concentrations (10-100 μg) of TMRM-loaded mitochondria isolated from HeLa or MCF-7 cells were diluted in 3 ml of SB buffer, normalized to a total protein concentration of 500 μg with BSA, and analyzed for changes in membrane potential in response to control or the various Hsp90 antagonists.”

[4] = test system: Ras-transformed NIH3T3 mitochondria; assay: as above; type: biochemical
Description: as §1, with “potential.” for “potential. In some experiments, increasing concentrations (10-100 μg) of TMRM-loaded mitochondria isolated from HeLa or MCF-7 cells were diluted in 3 ml of SB buffer, normalized to a total protein concentration of 500 μg with BSA, and analyzed for changes in membrane potential in response to control or the various Hsp90 antagonists.”

[5] = test system: normal mouse brain mitochondria; assay: as above; type: biochemical
Description: as §1, with “potential.” for “potential. In some experiments, increasing concentrations (10-100 μg) of TMRM-loaded mitochondria isolated from HeLa or MCF-7 cells were diluted in 3 ml of SB buffer, normalized to a total protein concentration of 500 μg with BSA, and analyzed for changes in membrane potential in response to control or the various Hsp90 antagonists.”

[6] = test system: mitochondria isolated from Raji lymphoblastoid cells; assay: Cytochrome c release from isolated mitochondria (Western blotting); type: biochemical, human
Description: (§2) Tumor cell types were treated with controls or the various Hsp90 antagonists, and cytosolic extracts were harvested at increasing time intervals between 5-30 minutes and analyzed by Western blotting. For experiments in a cell-free system, purified mitochondria (20 μg) were suspended in 500 μl of SB buffer (0.2 M sucrose, 10 mM Tris-MOPS, pH 7.4, 5 mM succinate, 1 mM sodium phosphate, 10 μM EGTA-Tris, and 2 μM rotenone). Samples were treated with controls or the various Hsp90 antagonists for 20 minutes at 22° C. At the end of each incubation reaction, mitochondria and supernatants were separated by centrifugation at 6,000×g for 10 minutes, and analyzed by Western blotting.

HeLa cells [7] = assay: Time-lapse videomicroscopy of cell morphology; type: cell-based, human; conditions: within minutes
Description: For time lapse videomicroscopy, HeLa cells were maintained in 35 mm glass-bottom tissue-culture dishes (Mat-tek). Prior to imaging, cells were incubated with 400 nM CM-H2XRos (M7513, Molecular Probes) under growth conditions for 15 minutes. After washes, fresh culture medium was added, and cells were imaged in an environmental chamber (PDMI-2; Harvard Apparatus) in complete medium with CO2 exchange (0.5 liters/minute) at 37° C. Cells were imaged every 1 minute using a 100× phase contrast lens with a green interference filter on an inverted microscope (Olympus IX-70). Images were captured on a CoolSnap HQ CCD camera (Roper Scientific) and concatenated using Metamorph software (Universal Imaging Corp.). Cells were imaged in the absence of any reagent for the first 10 minutes of the time lapse, at which point Shepherdin or cell permeable scrambled peptidomimetic was added dropwise in between acquisitions. Phase-contrast images of mitochondria were verified by the presence of CM-H2XRos labeling.

[8] = test system: purified HeLa cell mitochondria; assay: Mitochondrial membrane potential of TMRM-loaded isolated mitochondria; type: biochemical, human; conditions: TMRM-loaded HeLa cell (tumor) mitochondria
Description: as §1, with “potential.” for “potential. In some experiments, increasing concentrations (10-100 μg) of TMRM-loaded mitochondria isolated from HeLa or MCF-7 cells were diluted in 3 ml of SB buffer, normalized to a total protein concentration of 500 μg with BSA, and analyzed for changes in membrane potential in response to control or the various Hsp90 antagonists.”

[9] = test system: mitochondria purified from B-lymphoblastoid Raji cells; assay: as above; type: biochemical, human
Description: as §1, with “potential.” for “potential. In some experiments, increasing concentrations (10-100 μg) of TMRM-loaded mitochondria isolated from HeLa or MCF-7 cells were diluted in 3 ml of SB buffer, normalized to a total protein concentration of 500 μg with BSA, and analyzed for changes in membrane potential in response to control or the various Hsp90 antagonists.”

Raji cells = assay: Mitochondrial membrane potential in JC-1-loaded cells (flow cytometry); type: cell-based, human; conditions: within five minutes of addition
Description: as §1, with “potential.” for “potential. In some experiments, increasing concentrations (10-100 μg) of TMRM-loaded mitochondria isolated from HeLa or MCF-7 cells were diluted in 3 ml of SB buffer, normalized to a total protein concentration of 500 μg with BSA, and analyzed for changes in membrane potential in response to control or the various Hsp90 antagonists.”

[10] = test system: normal human fibroblast cell types (WS-1, HGF, HFF); assay: Cell viability by MTT, normal human fibroblast cell types
Description: Changes in protein expression in the various experiments of siRNA targeting were assessed by Western blotting. For analysis of TRAP-1-directed cytoprotection, primary nontransformed human fibroblasts HFF and WS-1 were transfected with control pcDNA3 or TRAP-1 cDNA by lipofectamine for 24 hours, exposed to increasing concentrations (0-1 μM) of the cell death stimulus staurosporine (STS), and analyzed for cell viability after additional 24 hours incubation by MTT. For analysis of apoptosis, p53+/+ or p53−/−HCT116 cells were treated with control or ANT-GA (100 μM), and analyzed for DEVDase activity (CaspaTag) and propidium iodide staining by simultaneous multiparametric flow cytometry, as described (Dohi et al., J. Clin. Invest. 114(8):1117-27, (2004); Plescia et al., Cancer Cell, 7:457-468, (2005)).

[11] = test system: mitochondria isolated from WS-1 normal human fibroblasts; assay: Mitochondrial membrane potential of TMRM-loaded isolated mitochondria; type: biochemical
Description: as §1, with “potential.” for “potential. In some experiments, increasing concentrations (10-100 μg) of TMRM-loaded mitochondria isolated from HeLa or MCF-7 cells were diluted in 3 ml of SB buffer, normalized to a total protein concentration of 500 μg with BSA, and analyzed for changes in membrane potential in response to control or the various Hsp90 antagonists.”
Alternatively, H460 cells were labeled with the fluorescent dye JC-1 (Molecular Probes), and analyzed for changes in red/green (F1-2/F1-1) fluorescence ratio after treatment with the various agents, by multiparametric flow cytometry. Cytochrome c content in pellets or supernatants of drug-treated isolated mitochondria was determined by Western blotting.

HeLa cells [12] = assay: Cytochrome c release into the cytosol of treated tumor cells (Western blotting); type: cell-based, human
[13] = test system: primary human sarcoma sample mitochondria; assay: Cytochrome c release from isolated mitochondria (Western blotting); type: biochemical
Description: as §2

[14] = test system: mitochondria isolated from a p53−/− mouse lymphoma specimen; assay: as above; type: biochemical
Description: as §2

[15] = test system: normal mouse liver mitochondria; assay: Cytochrome c and Smac content of isolated mitochondria (Western blotting); type: biochemical
Description: as §2

## CSCC[C@@H](NC(=O)[C@@H](CCCCN)NC(=O)[C@@H](Cc1c[nH]c2ccccc12)NC(=O)[C@@H](CCCCN)NC(=O)[C@H](N)CCCCN)C(=O)N[C@H](CCCNC(=N)N)C(=O)N[C@H](CCCNC(=N)N)C(=O)N[C@H](CC(N)=O)C(=O)N[C@H](CCC(N)=O)C(=O)N[C@H](Cc1ccccc1)C(=O)N[C@H](Cc1c[nH]c2ccccc12)C(=O)N[C@@H](C(=O)N[C@H](CCCCN)C(=O)N[C@@H](C(=O)N[C@H](CCC(N)=O)C(=O)N[C@H](CCCNC(=N)N)C(=O)N[C@H](CC(C)C)C(=O)N[C@H](Cc1ccccc1)C(=O)N[C@H](C)C(=O)N[C@H](CS)C(=O)NCC(=O)N[C@H](CO)C(=O)N[C@H](CO)C(=O)N[C@H](Cc1c[nH]cn1)C(=O)N[C@H](CCCCN)C(N)=O)C(C)C)C(C)C [Sheph-ANT] (H-[dK][dK][dW][dK][dM][dR][dR][dN][dQ][dF][dW][dV][dK][dV][dQ][dR][dL][dF][dA][dC]G[dS][dS][dH][dK]-NH2; N-terminus and C-terminus assumed)
[1]
  membrane potential of mitochondria: had no effect on mitochondria isolated from normal NIH3T3 cells
HeLa cells [2]
  cell killing: complete cell killing
Tumor cells
  tumor cell viability / killing: sufficient to kill disparate tumor cell types in a concentration-dependent manner; also recorded: triggered selective tumor cell death
[3]
  membrane potential of mitochondria: did not affect membrane potential; also recorded: had no effect on normal liver mitochondria, with or without CsA
[4]
  membrane potential of mitochondria: readily depolarized Ras-transformed NIH3T3 mitochondria
[5]
  membrane potential of mitochondria: did not affect membrane potential
[6]
  release of cytochrome c from mitochondria: concentration-dependent release of cytochrome c; also recorded: reduces mitochondrial Cyt c in a dose-dependent manner
HeLa cells [7]
  morphological features of apoptosis: exhibited within minutes morphological features of apoptosis
[8]
  mitochondrial membrane potential: caused sudden loss of mitochondrial membrane potential; also recorded: induces a change in mitochondrial membrane potential
[9]
  membrane potential of mitochondria: readily depolarized mitochondria
Raji cells
  mitochondrial membrane potential in tumor cells: induced loss of mitochondrial membrane potential in tumor cells
[10]
  viability of normal human fibroblast cell types: did not affect the viability of various normal human fibroblast cell types
[11]; WS-1 normal human fibroblasts
  membrane potential of mitochondria: did not cause loss of membrane potential
[11]; glucose-deprived WS-1, compared with Scram-ANT
  membrane potential of mitochondria: did not significantly affect membrane potential
[11]; summary for normal cells (FIGS. 4A, C, E, G)
  mitochondrial membrane potential of normal cells: did not affect mitochondrial membrane potential of normal cells over background levels
HeLa cells [12]
  cytochrome c release into the cytosol: discharge of mitochondrial cytochrome c in the cytosol
[13]
  release of cytochrome c from mitochondria: concentration-dependent release of cytochrome c; also recorded: increases Cyt c release into the supernatant in a dose-dependent manner
[14]
  cytochrome c release from mitochondria: induced cytochrome c release
[15]
  cytochrome c or Smac levels of mitochondria: had no effect on cytochrome c or Smac levels
